According to US20250099357A1, “ANT[…] WITH BETA CARBOLINE ALKALOID AND PHENOLIC ACID AND CO[…]” (Conopco, Inc., d/b/a UNILEVER, priority 2021, published 2025):

Experiments:
[1] = test system: Enterobacter gergoviae ATCC 33028; test: Liquid broth assay (MIC and checkerboard) against Enterobacter gergoviae; type: cell-based; conditions: Pluralibacter gergoviae, ATCC33028, component by itself, 30° C., 24 hours, OD600, <25% growth vs control, read-out: minimal inhibitory concentration (MIC)
Source text: (§1) Naturally derived antimicrobial systems were made, as shown below by combining the beta carboline alkaloid and phenolic acid. Two pools were set up and each pool contained 1 organism. The strains involved were Enterobacter gergoviae ATCC 33028 of the family Pluralibacter gergoviae, a Gram-negative and Aspergillus brasiliensis ATCC 16404. The FIC test range was 16 times greater than the projected MIC for each sample.
(§2) The differing behaviors of inhibitory antimicrobials in isolation and mixtures have been widely explored using the concept of the Fractional Concentration and Fractional Inhibitory Concentration (FIC). See for instance JRW Lambert and R Lambert, J. Appl. Microbiol 95, 734 (2003); T. Jadavji, CG Prober and R Cheung, Antibacterial Agents and Chemotherapy 26, 91 (1984), and WO 2004/006876. MIC is the minimum inhibitory concentration a component prevents visible growth of a microbe. The FC and FIC parameters can be defined as follows: […]
(§3) Liquid broth assays (MIC and checkerboard) were conducted to identify the minimum concentration(s) of individual and binary combinations of natural preservation materials. […] Each of the two-preservation chemical/broth mixes was then combined in a third 96 well plate at varying concentrations and then inoculated with 1-5x106 microorganisms and incubated at 30° C. for 24 hours, after which optical densities at OD600 nm were measured.

[2] = test system: Aspergillus brasiliensis ATCC 16404; test: Liquid broth assay (MIC and checkerboard) against Aspergillus brasiliensis; type: cell-based; conditions: ATCC16404, component by itself, 30° C., 24 hours, OD600, <25% growth vs control
Source text: as §1, §2, §3

In the case of `COc1cc(C(=O)O)cc(OC)c1O` [Syringic Acid, 4-Hydroxy-3,5-dimethoxybenzoic acid], the MIC [1] is reported as over 50 mg/mL and the MIC [2] is reported as over 50 mg/mL.
